The values that follow come from ChEMBL document CHEMBL4376839, “Structure-Based Optimization of Coumarin hA3 Adenosine Receptor Antagonists” (J Med Chem, 2020).

Experiment [1] addresses T1, Adenosine receptor A1 (Homo sapiens, UniProt P30542).
T1 sequence (P30542 whole entry): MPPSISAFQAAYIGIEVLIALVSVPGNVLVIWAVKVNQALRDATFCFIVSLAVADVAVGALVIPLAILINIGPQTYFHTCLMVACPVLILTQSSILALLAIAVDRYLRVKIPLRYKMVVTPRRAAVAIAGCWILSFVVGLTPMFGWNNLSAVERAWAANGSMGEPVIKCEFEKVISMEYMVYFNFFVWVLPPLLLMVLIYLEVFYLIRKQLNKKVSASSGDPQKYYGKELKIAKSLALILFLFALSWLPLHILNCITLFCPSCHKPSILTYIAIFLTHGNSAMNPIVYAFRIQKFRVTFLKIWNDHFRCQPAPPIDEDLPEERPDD
As to the kind of experiment: Displacement of [3H]CCPA from human adenosine receptor A1 expressed in CHO cell membranes by radioligand competition assay. On the technique in general: Loss of bound radioactivity is the signal in a displacement assay; it reports binding, not function.

Experiment [2] has as its target Adenosine receptor A2a (Homo sapiens, UniProt P29274). As to the kind of experiment: Displacement of [3H]NECA from human adenosine receptor A2A expressed in CHO cell membranes by radioligand competition assay.
For experiment [3], the target named is T2, Adenosine receptor A3 (Homo sapiens, UniProt P0DMS8).
T2 sequence (P0DMS8 whole entry): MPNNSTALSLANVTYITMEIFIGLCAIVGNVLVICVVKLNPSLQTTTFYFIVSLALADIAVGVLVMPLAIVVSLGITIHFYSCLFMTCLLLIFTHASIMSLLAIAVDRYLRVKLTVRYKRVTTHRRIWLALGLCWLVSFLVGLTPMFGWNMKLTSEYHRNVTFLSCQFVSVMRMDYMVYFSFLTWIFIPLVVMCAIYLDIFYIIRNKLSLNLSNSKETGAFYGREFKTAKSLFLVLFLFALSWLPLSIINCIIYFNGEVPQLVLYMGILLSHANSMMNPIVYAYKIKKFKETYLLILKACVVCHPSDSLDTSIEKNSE
As to the kind of experiment: Displacement of [3H]HEMADO from human adenosine receptor A3 expressed in CHO cell membranes by radioligand competition assay.

Experiment [4] deals with T3, Adenosine receptor A2b (Homo sapiens, UniProt P29275).
T3 sequence (P29275 whole entry): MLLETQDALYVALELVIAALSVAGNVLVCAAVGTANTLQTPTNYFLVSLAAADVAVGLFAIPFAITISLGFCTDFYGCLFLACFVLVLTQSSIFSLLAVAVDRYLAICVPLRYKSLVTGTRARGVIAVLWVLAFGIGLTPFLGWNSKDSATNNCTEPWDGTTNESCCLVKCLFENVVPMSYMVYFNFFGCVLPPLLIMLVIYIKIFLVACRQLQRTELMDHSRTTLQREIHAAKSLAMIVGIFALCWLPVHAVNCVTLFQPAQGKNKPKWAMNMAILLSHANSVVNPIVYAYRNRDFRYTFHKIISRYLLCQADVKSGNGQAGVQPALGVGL
As to the kind of experiment: Antagonist activity at human adenosine receptor A2B expressed in CHO cells assessed as inhibition of NECA-stimulated adenylyl cyclase activity.

The target of experiment [5] is T3, Adenosine receptor A2b. The experiment is described as above. The source holds these as a separate data set.
In experiment [6] the target is T2, Adenosine receptor A3. As to the kind of experiment: Antagonist activity at human adenosine receptor A3 expressed in CHO cells assessed as suppression of NECA-induced decrease of cAMP accumulation by Glo-sensor cAMP assay. Type of experiment: functional, cell-based.

As a reminder, the Ki is a measure of affinity in units of concentration, obtained from inhibition or displacement. By IC50 is commonly meant the concentration at which inhibition is half-maximal.

Chain of Adenosine receptor A2a (P29274 whole entry): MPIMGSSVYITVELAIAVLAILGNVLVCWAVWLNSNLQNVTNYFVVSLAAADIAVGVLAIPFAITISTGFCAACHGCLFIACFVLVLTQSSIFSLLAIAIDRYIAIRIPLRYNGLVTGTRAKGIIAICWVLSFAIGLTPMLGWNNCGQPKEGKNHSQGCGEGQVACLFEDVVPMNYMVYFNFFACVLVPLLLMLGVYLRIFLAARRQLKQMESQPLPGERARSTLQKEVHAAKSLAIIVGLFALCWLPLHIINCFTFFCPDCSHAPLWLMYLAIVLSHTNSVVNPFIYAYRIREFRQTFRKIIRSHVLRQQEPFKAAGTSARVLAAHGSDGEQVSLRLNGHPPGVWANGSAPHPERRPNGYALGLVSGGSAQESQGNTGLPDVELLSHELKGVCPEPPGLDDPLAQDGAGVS

`CCOc1cccc2cc(-c3ccc([N+](=O)[O-])cc3)c(=O)oc12`: the Ki in experiment [1] was over 100 µM; in experiment [2] it was over 100 µM; in experiment [3], over 100 µM; in experiment [5], over 30 µM. For the same compound, in experiment [4], the IC50 was over 30 µM.

Consider `CC(=O)COc1cccc2cc(-c3ccc(C)cc3)c(=O)oc12`, for which the Ki in experiment [1] is over 100 µM; in experiment [2] it was over 100 µM; in experiment [3] it was 0.634 µM; in experiment [5] it was over 30 µM.

`CCOc1cccc2cc(-c3ccc(OC)c(OC)c3)c(=O)oc12`: the Ki was over 100 µM in experiment [1], over 100 µM in experiment [2], 13.7 µM in experiment [3] and over 30 µM in experiment [5]. Also, the IC50 in experiment [4] is over 30 µM.

With `Cc1cccc2cc(-c3cc(O)c(O)c(O)c3)c(=O)oc12`, the Ki in experiment [1] was 14.7 µM; in experiment [2] it was over 100 µM; in experiment [3], 14.3 µM; in experiment [5], over 30 µM. For the same compound, the 50% inhibitory concentration (IC50) in experiment [4] was over 30 µM.

With `CC(=O)COc1cccc2cc(-c3ccccc3)c(=O)oc12`, the inhibitory constant (Ki) was 10.4 µM in experiment [1], 16.1 µM in experiment [2], 7.06 µM in experiment [3] and over 30 µM in experiment [5].

For the compound `Cc1cccc2cc(-c3ccc([N+](=O)[O-])cc3)c(=O)oc12`, the inhibition constant Ki in experiment [1] was over 100 µM; in experiment [2], over 100 µM; in experiment [3], over 100 µM; in experiment [5], over 30 µM. Further, the half-maximal inhibitory concentration (IC50) in experiment [4] is over 30 µM.

As to `CCOc1cccc2cc(-c3ccc(Br)cc3)c(=O)oc12`, the inhibitory constant (Ki) in experiment [1] was over 100 µM; in experiment [2], over 100 µM; in experiment [3], over 100 µM; in experiment [5] it was over 30 µM. The IC50 in experiment [4] is over 30 µM.

Consider `O=c1oc2c(O)cccc2cc1-c1ccccc1`, for which the Ki in experiment [1] was 4.62 µM; in experiment [2], 42.3 µM; in experiment [3], 5.09 µM; in experiment [5], over 30 µM. Further, the half-inhibitory concentration (IC50) in experiment [4] is over 30 µM.

`O=c1oc2c(O)cccc2cc1-c1ccc(Br)cc1`: the Ki in experiment [1] is over 100 µM; in experiment [2], over 100 µM; in experiment [5], over 30 µM. Moreover, the half-maximal inhibitory concentration (IC50) in experiment [4] was over 30 µM.

With `COc1cc(-c2cc3cccc(C)c3oc2=O)cc(OC)c1OC`, the Ki is over 60 µM in experiment [1], 32.9 µM in experiment [2], 9.82 µM in experiment [3] and over 30 µM in experiment [5]. Also, in experiment [4], the IC50 was over 30 µM.

Consider `O=c1oc2c(O)cccc2cc1-c1ccc(O)c(O)c1`, for which the inhibition constant Ki is 6.2 µM in experiment [1], 14 µM in experiment [2], 23.6 µM in experiment [3] and over 30 µM in experiment [5]. In experiment [4], the IC50 is over 30 µM.

For `CCOc1cccc2cc(-c3cc(OC)c(OC)c(OC)c3)c(=O)oc12`, the inhibitory constant (Ki) was over 100 µM in experiment [1], over 100 µM in experiment [2], 9.05 µM in experiment [3] and over 30 µM in experiment [5]. Besides, the half-inhibitory concentration (IC50) in experiment [4] is over 30 µM.

As for `O=c1oc2c(O)c(O)ccc2cc1-c1ccc(O)cc1`, the Ki in experiment [1] was 12.5 µM; in experiment [2] it was 55.3 µM; in experiment [3] it was 9.16 µM; in experiment [5] it was over 30 µM. In addition, in experiment [4], the half-maximal inhibitory concentration (IC50) is over 30 µM.

Regarding `COc1ccc(-c2cc3cccc(OC)c3oc2=O)cc1`, the inhibitory constant (Ki) is over 100 µM in experiment [1], over 100 µM in experiment [2], 5.06 µM in experiment [3] and over 30 µM in experiment [5]. In addition, the half-maximal inhibitory concentration (IC50) in experiment [6] is 25.3 µM; in experiment [4] it was over 30 µM.

As for `Cc1cccc2cc(-c3ccccc3)c(=O)oc12`, the Ki in experiment [1] was 14.8 µM; in experiment [2], 42.1 µM; in experiment [3], 17 µM; in experiment [5], over 30 µM. In experiment [4], the IC50 was over 30 µM.

On to `CCOc1cccc2cc(-c3ccc(OC)cc3OC)c(=O)oc12`, for which the Ki is over 100 µM in experiment [1], over 100 µM in experiment [2], 16.6 µM in experiment [3] and over 30 µM in experiment [5]. The IC50 in experiment [4] is over 30 µM.

For `CC(=O)Oc1ccc(-c2cc3cccc(OC(C)=O)c3oc2=O)cc1OC(C)=O`, the Ki in experiment [1] is over 100 µM; in experiment [2] it was 64.4 µM; in experiment [3] it was 22 µM; in experiment [5], over 30 µM. Also, in experiment [4], the IC50 was over 30 µM.

On to `O=c1oc2c(O)c(O)ccc2cc1-c1ccccc1`, for which the Ki in experiment [1] was 2.4 µM; in experiment [2], 12.1 µM; in experiment [3], 3.85 µM; in experiment [5], over 30 µM. The IC50 in experiment [4] is over 30 µM.

With `CC(=O)Oc1ccc(-c2cc3ccc(OC(C)=O)c(OC(C)=O)c3oc2=O)cc1`, the Ki in experiment [1] was over 100 µM; in experiment [2], over 100 µM; in experiment [3] it was 6.14 µM; in experiment [5] it was over 30 µM. For the same compound, the IC50 in experiment [4] was over 30 µM.

Take `Cc1ccc(-c2cc3cccc(C)c3oc2=O)cc1`: the Ki in experiment [1] was over 100 µM; in experiment [2], over 100 µM; in experiment [3], 16.6 µM; in experiment [5], over 30 µM. For the same compound, the IC50 in experiment [4] is over 30 µM.

`CCOc1cccc2cc(-c3ccc(OC)cc3)c(=O)oc12`: the inhibitory constant (Ki) was over 100 µM in experiment [1], over 100 µM in experiment [2], 5.32 µM in experiment [3] and over 30 µM in experiment [5]. The IC50 in experiment [6] was 29.5 µM; in experiment [4] it was over 30 µM.

As to `CCOc1cccc2cc(-c3ccccc3)c(=O)oc12`, the Ki in experiment [1] was 22.1 µM; in experiment [2], 55 µM; in experiment [3], 22.5 µM; in experiment [5] it was over 30 µM. In experiment [4], the IC50 is over 30 µM.

In the case of `O=c1oc2c(O)c(O)ccc2cc1-c1ccc(O)c(O)c1`, the inhibitory constant (Ki) in experiment [1] was 6.28 µM; in experiment [2] it was 25.5 µM; in experiment [3] it was 8.5 µM; in experiment [5] it was over 30 µM. The half-maximal inhibitory concentration (IC50) in experiment [4] was over 30 µM.

As for `COc1cccc2cc(-c3ccc([N+](=O)[O-])cc3)c(=O)oc12`, the Ki in experiment [1] is over 100 µM; in experiment [2] it was 59.1 µM; in experiment [3], 8.02 µM; in experiment [5] it was over 30 µM. Moreover, the IC50 in experiment [4] was over 30 µM.

For `CC(=O)Oc1ccc(-c2cc3ccc(OC(C)=O)c(OC(C)=O)c3oc2=O)cc1OC(C)=O`, the Ki is over 100 µM in experiment [1], over 100 µM in experiment [2], 23.4 µM in experiment [3] and over 30 µM in experiment [5]. In addition, the IC50 in experiment [4] was over 30 µM.

Turning to `CCOc1cccc2cc(-c3ccc(C)cc3)c(=O)oc12`, the Ki in experiment [1] was over 100 µM; in experiment [2] it was over 60 µM; in experiment [3], 3.93 µM; in experiment [5] it was over 30 µM. Besides, the values for the half-inhibitory concentration (IC50) in experiment [6] and in experiment [4] were 18.4 µM and over 30 µM, respectively.

In the case of `CC(=O)Oc1ccc2cc(-c3ccccc3)c(=O)oc2c1OC(C)=O`, the inhibitory constant (Ki) in experiment [1] is 8.56 µM; in experiment [2], 21.1 µM; in experiment [3] it was 5.17 µM; in experiment [5] it was over 30 µM. In addition, in experiment [4], the IC50 is over 30 µM.

As to `CC(=O)COc1cccc2cc(-c3ccc(Br)cc3)c(=O)oc12`, the Ki is over 100 µM in experiment [1], over 100 µM in experiment [2], over 30 µM in experiment [3] and over 30 µM in experiment [5].

For `CC(=O)Oc1cccc2cc(-c3ccccc3)c(=O)oc12`, the Ki in experiment [1] is 6.93 µM; in experiment [2] it was 35.7 µM; in experiment [3], 6.86 µM; in experiment [5], over 30 µM. Also, in experiment [4], the half-maximal inhibitory concentration (IC50) is over 30 µM.

Take `COc1ccc(-c2cc3cccc(C)c3oc2=O)cc1OC`: the Ki in experiment [1] was over 100 µM; in experiment [2], 25.9 µM; in experiment [3], 13.6 µM; in experiment [5] it was over 30 µM. Further, the half-maximal inhibitory concentration (IC50) in experiment [4] was over 30 µM.
